Assay results from ChEMBL document CHEMBL1158595, “2' biaryl amides as novel and subtype selective M1 agonists. Part II: Further optimization and profiling” (Bioorg Med Chem Lett, 2010).
pEC50, pIC50: −log10 of the molar value. Each block holds one molecule with its values, some of them ahead of it.

Key:
[1] = biological target: T1, Muscarinic acetylcholine receptor M1 (Homo sapiens, UniProt P11229); experiment: Agonist activity at human muscarinic M1 receptor expressed in CHO cells assessed as effect on acetylcholine-induced intracellular calcium level by FLIPR assay; format: functional, cell-based
T1 sequence (P11229 whole entry): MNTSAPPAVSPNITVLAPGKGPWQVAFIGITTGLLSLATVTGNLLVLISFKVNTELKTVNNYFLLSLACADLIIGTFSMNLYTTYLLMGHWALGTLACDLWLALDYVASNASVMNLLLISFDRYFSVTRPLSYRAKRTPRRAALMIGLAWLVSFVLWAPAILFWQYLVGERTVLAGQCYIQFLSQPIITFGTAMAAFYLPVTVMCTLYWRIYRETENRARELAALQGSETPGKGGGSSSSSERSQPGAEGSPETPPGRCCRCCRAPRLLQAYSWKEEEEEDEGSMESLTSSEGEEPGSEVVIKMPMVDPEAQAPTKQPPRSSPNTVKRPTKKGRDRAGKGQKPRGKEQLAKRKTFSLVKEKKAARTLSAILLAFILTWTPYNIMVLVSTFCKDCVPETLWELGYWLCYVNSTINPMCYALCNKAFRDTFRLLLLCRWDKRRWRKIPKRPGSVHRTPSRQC

[2] = biological target: T2, Muscarinic acetylcholine receptor M1 (Homo sapiens) (UniProt P11229); experiment: Intrinsic activity at human muscarinic M1 receptor expressed in CHO cells assessed as effect on acetylcholine-induced intracellular calcium level by FLIPR assay relative to acetylcholine; format: functional, cell-based
T2 sequence (whole entry): T1 sequence (P11229 whole entry)

[3] = biological target: T3, Muscarinic acetylcholine receptor M2 (Homo sapiens, UniProt P08172); experiment: Inhibition of human muscarinic M2 receptor expressed in CHO cells; format: cell-based
T3 sequence (P08172 whole entry): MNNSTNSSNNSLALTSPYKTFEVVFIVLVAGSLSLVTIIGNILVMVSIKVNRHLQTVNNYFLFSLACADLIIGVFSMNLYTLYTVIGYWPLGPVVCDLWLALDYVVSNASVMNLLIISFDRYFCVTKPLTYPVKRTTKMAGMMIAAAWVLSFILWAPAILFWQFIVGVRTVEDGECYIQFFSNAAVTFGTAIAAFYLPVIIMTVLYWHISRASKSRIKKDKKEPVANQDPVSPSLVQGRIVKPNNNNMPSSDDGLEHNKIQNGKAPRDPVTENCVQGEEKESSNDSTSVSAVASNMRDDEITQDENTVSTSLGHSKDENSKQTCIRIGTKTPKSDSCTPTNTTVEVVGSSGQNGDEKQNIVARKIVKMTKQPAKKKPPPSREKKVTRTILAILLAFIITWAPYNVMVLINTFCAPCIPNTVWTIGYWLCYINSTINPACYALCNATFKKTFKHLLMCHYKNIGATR

[4] = biological target: Muscarinic acetylcholine receptor M3 (Homo sapiens, UniProt P20309); experiment: Inhibition of human muscarinic M3 receptor expressed in CHO cells; format: cell-based
[5] = biological target: T4, Muscarinic acetylcholine receptor M4 (Homo sapiens, UniProt P08173); experiment: Inhibition of human muscarinic M4 receptor expressed in CHO cells; format: cell-based
T4 sequence (P08173 whole entry): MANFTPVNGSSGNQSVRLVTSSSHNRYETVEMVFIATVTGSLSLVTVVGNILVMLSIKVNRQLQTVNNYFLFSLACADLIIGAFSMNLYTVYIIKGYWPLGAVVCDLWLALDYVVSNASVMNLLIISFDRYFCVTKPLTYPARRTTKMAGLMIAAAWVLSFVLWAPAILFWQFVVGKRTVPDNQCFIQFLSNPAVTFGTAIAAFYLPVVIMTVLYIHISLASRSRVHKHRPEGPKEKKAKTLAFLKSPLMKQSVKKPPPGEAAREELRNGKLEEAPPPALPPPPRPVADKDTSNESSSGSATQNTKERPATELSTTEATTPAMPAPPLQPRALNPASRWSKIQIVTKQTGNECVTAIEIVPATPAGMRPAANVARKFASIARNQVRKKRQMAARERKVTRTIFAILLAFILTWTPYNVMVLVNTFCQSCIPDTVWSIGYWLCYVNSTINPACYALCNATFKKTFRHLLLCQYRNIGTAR

[6] = biological target: T5, Muscarinic acetylcholine receptor M5 (Homo sapiens, UniProt P08912); experiment: Inhibition of human muscarinic M5 receptor expressed in CHO cells; format: cell-based
T5 sequence (P08912 whole entry): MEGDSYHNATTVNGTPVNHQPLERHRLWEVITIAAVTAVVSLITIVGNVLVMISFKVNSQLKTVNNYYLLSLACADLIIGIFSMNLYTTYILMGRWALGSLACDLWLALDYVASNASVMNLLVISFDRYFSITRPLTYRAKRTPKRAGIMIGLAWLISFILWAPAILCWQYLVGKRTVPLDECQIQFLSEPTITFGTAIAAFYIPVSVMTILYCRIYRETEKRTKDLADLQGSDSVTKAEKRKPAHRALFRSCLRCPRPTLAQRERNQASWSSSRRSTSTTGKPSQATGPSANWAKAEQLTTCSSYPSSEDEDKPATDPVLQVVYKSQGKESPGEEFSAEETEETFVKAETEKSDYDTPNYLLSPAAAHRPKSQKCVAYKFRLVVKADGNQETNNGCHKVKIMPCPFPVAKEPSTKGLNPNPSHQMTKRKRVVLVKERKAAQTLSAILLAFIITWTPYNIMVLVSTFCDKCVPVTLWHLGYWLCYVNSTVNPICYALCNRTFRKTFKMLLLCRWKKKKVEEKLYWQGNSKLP

[7] = biological target: Muscarinic acetylcholine receptors; M1 & M2 (Homo sapiens) (UniProt P11229+P08172); experiment: Selectivity ratio of human muscarinic M2 receptor to human muscarinic M1 receptor
[8] = biological target: Muscarinic acetylcholine receptor M1 and M3 (Homo sapiens) (UniProt P20309+P11229); experiment: Selectivity ratio of human muscarinic M3 receptor to human muscarinic M1 receptor
[9] = organism: Homo sapiens; experiment: Selectivity ratio of human muscarinic M4 receptor to human muscarinic M1 receptor
[10] = organism: Homo sapiens; experiment: Selectivity ratio of human muscarinic M5 receptor to human muscarinic M1 receptor

Muscarinic acetylcholine receptor M3, sequence (P20309 whole entry): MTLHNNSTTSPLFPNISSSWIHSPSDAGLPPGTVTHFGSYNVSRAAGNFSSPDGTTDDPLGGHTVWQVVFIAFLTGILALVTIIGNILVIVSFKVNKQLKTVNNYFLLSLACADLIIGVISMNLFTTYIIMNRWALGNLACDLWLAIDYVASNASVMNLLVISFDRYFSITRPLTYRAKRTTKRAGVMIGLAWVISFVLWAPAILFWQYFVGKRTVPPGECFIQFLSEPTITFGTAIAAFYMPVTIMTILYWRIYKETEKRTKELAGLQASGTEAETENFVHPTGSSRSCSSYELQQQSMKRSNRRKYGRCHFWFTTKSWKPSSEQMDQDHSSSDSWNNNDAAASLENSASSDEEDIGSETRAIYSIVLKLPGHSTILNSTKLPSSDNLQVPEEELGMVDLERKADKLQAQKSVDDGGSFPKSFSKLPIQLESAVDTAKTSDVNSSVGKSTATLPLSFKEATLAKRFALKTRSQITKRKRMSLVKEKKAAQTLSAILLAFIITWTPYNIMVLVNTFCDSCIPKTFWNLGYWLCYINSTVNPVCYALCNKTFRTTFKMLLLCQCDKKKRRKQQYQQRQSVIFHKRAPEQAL
Muscarinic acetylcholine receptor M1 and M3 (Homo sapiens), sequence (P20309 whole entry, looked up, one chain of several): as the sequence (P20309 whole entry) above

SMILES: CS(=O)(=O)N(Cc1c(F)cccc1-c1cccc(Cl)c1)CC1CCNCC1
pEC50 [1]: 5.80
Intrinsic activity [2]: 51%

SMILES: Fc1cccc(-c2cccc(Cl)c2)c1-c1noc(C2CCNCC2)n1
pEC50 [1]: < 5.00

SMILES: O=C(CCC1CCNCC1)c1ccccc1-c1cccc(Cl)c1
pEC50 [1]: < 5.00

SMILES: Clc1cccc(-c2ccccc2OCCC2CCNCC2)c1
pEC50 [1]: < 5.00

SMILES: O=C(NCC1CCNCC1)c1cccc(F)c1-c1cccc(Cl)c1
pEC50 [1]: 5.30
Intrinsic activity [2]: 45%

SMILES: O=C(NCC1CCNCC1)c1ccncc1-c1cccc(Cl)c1
pEC50 [1]: < 5.00
Intrinsic activity [2]: 3%

SMILES: O=S(=O)(NCC1CCNCC1)c1ccccc1-c1cccc(Cl)c1
pEC50 [1]: < 5.00

SMILES: Cc1cccc(C(=O)NCC2CCNCC2)c1-c1cccc(Cl)c1
pEC50 [1]: < 5.00
Intrinsic activity [2]: 34%

SMILES: O=C(NCC1CCNCC1)c1cccc(Cl)c1-c1cccc(Cl)c1
pEC50 [1]: < 5.00
Intrinsic activity [2]: 14%

SMILES: Fc1cccc(-c2cc(Cl)ccc2Cl)c1-c1nc(C2CCNCC2)no1
pEC50 [1]: 6.30
Intrinsic activity [2]: 65%
pIC50 [4]: 5.40

SMILES: Clc1cccc(-c2ccccc2CNCC2CCNCC2)c1
pEC50 [1]: < 5.00

SMILES: O=C(NCC1CCNCC1)c1cnccc1-c1cccc(Cl)c1
pEC50 [1]: < 5.00
Intrinsic activity [2]: 20%

SMILES: O=C(NCc1ccccc1-c1cccc(Cl)c1)C1CCNCC1
pEC50 [1]: 6.30
Intrinsic activity [2]: 81%
pIC50 [4]: 5.70

SMILES: O=C(CC1CCNCC1)Nc1ccccc1-c1cccc(Cl)c1
pEC50 [1]: 5.10
Intrinsic activity [2]: 43%

SMILES: Cn1cc(-c2cccc(Cl)c2)c(C(=O)NCC2CCNCC2)n1
pEC50 [1]: < 5.00
Intrinsic activity [2]: 0%

SMILES: Cc1ccc(-c2cccc(Cl)c2)c(C(=O)NCC2CCNCC2)c1
pEC50 [1]: 6.00
Intrinsic activity [2]: 67%

SMILES: CN(CC1CCNCC1)S(=O)(=O)c1ccccc1-c1cccc(Cl)c1
pEC50 [1]: < 5.00

SMILES: Clc1cccc(-c2ccccc2/C=C/CC2CCNCC2)c1
pEC50 [1]: 6.00
Intrinsic activity [2]: 55%
pIC50 [4]: 7.90

SMILES: O=C(NCCC1CCNCC1)c1ccccc1-c1cccc(Cl)c1
pEC50 [1]: 5.50
Intrinsic activity [2]: 52%

SMILES: CC(=O)N(Cc1ccccc1-c1cccc(Cl)c1)CC1CCNCC1
pEC50 [1]: 6.40
Intrinsic activity [2]: 70%

SMILES: Clc1cccc(-c2ccccc2COCC2CCNCC2)c1
pEC50 [1]: < 5.00

SMILES: O=C(NCC1CCNCC1)c1ccc(F)cc1-c1cccc(Cl)c1
pEC50 [1]: < 5.00
Intrinsic activity [2]: 24%

SMILES: O=C(NCC1=C(F)CNCC1)c1c(-c2cccc(Cl)c2)ccc(Cl)c1F
pEC50 [1]: 6.80
Intrinsic activity [2]: 74%
pIC50 [4]: 5.00

SMILES: O=C(NCC1CCNCC1)c1ccccc1-c1nc(Cl)cs1
pEC50 [1]: 6.60
pEC50 [3]: < 5.00
pEC50 [4]: < 5.00
pEC50 [5]: < 5.00
pEC50 [6]: < 5.00
Ratio [7]: 100
Ratio [8]: 100
Ratio [9]: 100
Ratio [10]: 100

SMILES: Cc1cccc(-c2cccc(Cl)c2)c1C(=O)NCC1CCNCC1
pEC50 [1]: < 5.00
Intrinsic activity [2]: 37%

SMILES: O=C(NCC1CCNCC1)c1cccnc1-c1cccc(Cl)c1
pEC50 [1]: < 5.00
Intrinsic activity [2]: 0%

SMILES: O=C(NCC1CCNCC1)c1sccc1-c1cccc(Cl)c1
pEC50 [1]: < 5.00
Intrinsic activity [2]: 0%

SMILES: CN(C(=O)CC1CCNCC1)c1ccccc1-c1cccc(Cl)c1
pEC50 [1]: < 5.00

SMILES: O=C(OCC1CCNCC1)c1ccccc1-c1cccc(Cl)c1
pEC50 [1]: < 5.00

SMILES: Fc1cccc(-c2cccc(Cl)c2)c1-c1noc(CC2CCNCC2)n1
pEC50 [1]: < 5.00

SMILES: CN(Cc1ccccc1-c1cccc(Cl)c1)C(=O)C1CCNCC1
pEC50 [1]: < 5.00

SMILES: O=C(NCC1CCNCC1)c1ncccc1-c1cccc(Cl)c1
pEC50 [1]: < 5.00
Intrinsic activity [2]: 18%

Further molecules by rising pEC50 [1], results first:

pEC50 [1]: 6.80
Intrinsic activity [2]: 68%
pIC50 [4]: 5.00
SMILES: O=C(NC[C@H]1CCNC[C@H]1F)c1c(F)cccc1-c1cccc(Cl)c1

pEC50 [1]: 6.80
Intrinsic activity [2]: 77%
SMILES: Cc1ccc(C(=O)NCC2CCNCC2)c(-c2cccc(Cl)c2)c1

pEC50 [1]: 6.80
Intrinsic activity [2]: 74%
pIC50 [4]: 6.90
SMILES: O=C(Cc1ccccc1-c1cccc(Cl)c1)NC1CCNCC1

pEC50 [1]: 6.80
Intrinsic activity [2]: 72%
SMILES: CC1CNCC=C1CNC(=O)c1c(-c2cccc(Cl)c2)ccc(Cl)c1F (configuration not stated)

pEC50 [1]: 7.00
Intrinsic activity [2]: 79%
SMILES: O=C(NCC1CCNCC1)c1ccc(Cl)cc1-c1cccc(Cl)c1

pEC50 [1]: 7.00
Intrinsic activity [2]: 74%
SMILES: O=C(NCC1CCNCC1)c1cc(Cl)ccc1-c1cccc(Cl)c1

pEC50 [1]: 7.20
Intrinsic activity [2]: 109%
SMILES: O=C(NCC1CCNCC1)c1c(Cl)cccc1-c1cccc(Cl)c1

pEC50 [1]: 7.20
Intrinsic activity [2]: 71%
pIC50 [4]: 7.70
SMILES: O=S(=O)(CCC1CCNCC1)c1ccccc1-c1cccc(Cl)c1

pEC50 [1]: 7.20
Intrinsic activity [2]: 87%
pIC50 [4]: 5.90
SMILES: O=C(NCC1(F)CCNCC1)c1c(F)cccc1-c1cccc(Cl)c1

pEC50 [1]: 7.30
Intrinsic activity [2]: 7.8%
SMILES: CN(C(=O)Cc1ccccc1-c1cccc(Cl)c1)C1CCNCC1

pEC50 [1]: 7.30
Intrinsic activity [2]: 78%
SMILES: O=C(NCC1CCNCC1)c1cc(F)ccc1-c1cccc(Cl)c1

pEC50 [1]: 7.40
Intrinsic activity [2]: 92%
pIC50 [4]: 5.00
SMILES: CC[C@H]1CNCC[C@@H]1CNC(=O)c1c(F)cccc1-c1cccc(Cl)c1

pEC50 [1]: 7.50
Intrinsic activity [2]: 92%
pIC50 [4]: 5.90
SMILES: O=C(NCC1CCNCC1)c1c(F)cccc1-c1cc(Cl)ccc1Cl

pEC50 [1]: 7.60
Intrinsic activity [2]: 80%
SMILES: O=C(NCC1CCNCC1)c1c(-c2cccc(Cl)c2)ccc(Cl)c1F

pEC50 [1]: 7.70
Intrinsic activity [2]: 92%
pIC50 [4]: 5.60
SMILES: C[C@H]1CNCC[C@H]1CNC(=O)c1c(F)cccc1-c1cccc(Cl)c1 (relative stereo)

pEC50 [1]: 7.80
Intrinsic activity [2]: 90%
SMILES: O=C(NCC1CCNCC1)c1c(F)cccc1-c1cccc(Cl)c1

pEC50 [1]: 8.50
Intrinsic activity [2]: 91%
pIC50 [3]: 5.90
pIC50 [4]: 5.50
pIC50 [5]: 5.10
pIC50 [6]: 5.80
SMILES: O=C(NCC1=CCNCC1)c1c(F)cccc1-c1cccc(Cl)c1

pEC50 [1]: 9.00
Intrinsic activity [2]: 100%
pIC50 [4]: 8.70
SMILES: OC(CCC1CCNCC1)c1ccccc1-c1cccc(Cl)c1 (configuration not stated)
